Experimental data: US9808450B2, “Solid forms comprising 3-(4-amino-1-OXO-1,3-dihydro-isoindol-2-yl)-piperidine-2,6-dione and a coformer, compositions and methods of use thereof” (CELGENE CORPORATION, priority 2013, dated 2017)
In brackets after ≈: the same amount, converted by molar mass.

Columns and labels:
[1] = system: cells derived from patients with multiple myeloma and del (5q) myelodysplastic syndromes; conditions: cells from patients with multiple myeloma and del (5q) MDS; cited from earlier work
[2] = system: tumor necrosis factor alpha (TNF-α); conditions: peripheral blood mononuclear cells; cited from earlier work
COX-1 = conditions: in vitro; cited from earlier work
[3] = system: hematopoietic tumor models, including multiple myeloma; conditions: some in vivo nonclinical hematopoietic tumor models; cited from earlier work
[4] = Estimated solubility of lenalidomide in solvents at ambient temperature (aliquot addition, visual inspection); type: physicochemical; conditions: organic solvent or mixture, thermodynamic from solid
Method: Solubility was estimated by treating a weighed sample of lenalidomide with measured aliquots of the test solvent at ambient temperature, with shaking and/or sonication between aliquots. Dissolution was determined by visual inspection. Solubility numbers were calculated by dividing the total amount of solvent used to dissolve the sample by the weight of the sample. The actual solubilities may be greater than the numbers calculated because of the use of solvent aliquots that were too large or because of slow dissolution rates. […] The solubility number is expressed as “greater than” if dissolution occurred on addition of the first solvent aliquot.

cyclooxygenase-2 (COX-2) = conditions: in vitro; cited from earlier work

For `Nc1cccc2c1CN(C1CCC(=O)NC1=O)C2=O` (stereo not drawn) [Lenalidomide, 3-(4-amino-1-oxo-1,3-dihydro-isoindol-2-yl)-piperidine-2,6-dione], the “Growth of cells in vitro” value [1] is given as “inhibits the growth”, the “Secretion of TNF-α” value [2] is given as “inhibits the secretion” and the “Expression of COX-1” value (COX-1) is given as “not”. The Tumor growth [3] was “delay in tumor growth”, the solubility ([4]; acetone) was 2200 µg/mL (≈ 8.49 mM) and the solubility ([4]; acetonitrile) was 3400 µg/mL (≈ 13.1 mM). For the same compound, the solubility ([4]; methanol) was 2600 µg/mL (≈ 10 mM), the solubility ([4]; tetrahydrofuran) was 3000 µg/mL (≈ 11.6 mM) and the “Expression of COX-2” value (cyclooxygenase-2 (COX-2)) was “inhibited the expression”.
